Assay results as given in PMC10133546, “Simultaneous determination of multiple components in rat plasma by UHPLC-sMRM for pharmacokinetic studies after oral administration of Qingjin Yiqi Granules” (Frontiers in Pharmacology, 2023).
Read-outs that look alike come from different tables or passages of the source.

Assays:
[1] = Stability of analytes in rat plasma (auto-sampler, freeze-thaw, room temperature, long-term); conditions: for Autosampler for 24 h Accuracy (%): autosampler 24 h; for Room temperature for 24 h Accuracy (%): room temperature 24 h; for Freeze thaw cycles Accuracy (%): three freeze-thaw cycles; for −80°C for 1month Accuracy (%): −80°C 1 month
[2] = Pharmacokinetic study in rat plasma after oral administration of QJYQ (UHPLC-sMRM); format: in vivo, Sprague-Dawley rats
Method: Exion LC AD tandem Blueline 3500 triple quadrupole mass spectrometer (AB SCIEX, Framingham, MA, United States) was used to thirty-three compounds in rat plasma. […] The whole detailed parameters of sMRM were obtained in Supplementary Table S1.
Rat plasma (100 μL) was mixed with 10% formic acid (10 μL) and vortexed for 1 min at room temperature. ISs (10 μL) and methanol/acetonitrile (1/1, v/v) (400 μL) were added and vortexed for 5 min, then centrifuged for 10 min at 14,000 rpm and 4°C. The transported supernatant was condensed to dryness under the flow of nitrogen gas. The dried residue was reconstituted with 70% methanol (100 μL) by vortex-mixing for 5 min and centrifuging at 14,000 rpm for 10 min. Last, 2 μL of the solution were injected into the UHPLC-sMRM system.
The pharmacokinetic study was approved by the Animal Ethics Committee of Tianjin University of Traditional Chinese Medicine (TCM-LAEC2021228). Ten male Sprague-Dawley rats (weight 220–240 g) was kept at the animal center of Tianjin University of Traditional Chinese Medicine (Tianjin, China). […] The sample was transferred right away following a 10 min period of centrifugation at 7000 rpm and 4°C. All plasma samples were frozen and stored at −80°C.
All the pharmacokinetic parameters were calculated using the DAS 1.0 software (Drug and Statistics 1.0, Medical College of Wannan, China). Pharmacokinetic parameters include the maximum drug concentration in plasma (Cmax), the time to achieve maximum drug concentration (Tmax), the area under the plasma concentration-time curve (AUC), elimination half-life (T1/2), and mean residence time (MRT). The pharmacokinetic parameters were computed using the non-compartmental model. All data are expressed as mean ± standard deviation (SD). GraphPad Prism 8.0 (GraphPad Software Inc., La Jolla, CA, United States) software was used to draw the drug-time curve.

[3] = Stability of the working solution (4°C for 1 month); format: physicochemical
Method: The stability of analytes in plasma was evaluated by analyzing 4 QC samples (n = 6). The stability was included auto-sampler stability (keeping the sample in auto-sampler for 24 h), three times of freeze-thaw cycles stability (freezing cycle at −80°C, thawing cycle at room temperature), room temperature stability (storing samples at room temperature for 24 h), long-term stability (storing samples at −80°C for 1 month). […] Accompanying curve was established when testing the sample, calculate and compare the ratio of the actual measured concentration to the theoretical concentration, expressed in accuracy and RSD.

[4] = rat plasma, oral QJYQ 3.15 g/kg, n = 8, mean ± SD

Structure (SMILES) | Autosampler for 24 h Accuracy (%) ([1]; 12.5 ng/mL) | Room temperature for 24 h Accuracy (%) ([1]; 12.5 ng/mL) | Freeze thaw cycles Accuracy (%) ([1]; 12.5 ng/mL) | −80°C for 1month Accuracy (%) ([1]; 12.5 ng/mL) | Autosampler for 24 h Accuracy (%) ([1]; 50 ng/mL) | Room temperature for 24 h Accuracy (%) ([1]; 50 ng/mL) | Autosampler for 24 h Accuracy (%) ([1]; 100 ng/mL) | Room temperature for 24 h Accuracy (%) ([1]; 100 ng/mL) | Freeze thaw cycles Accuracy (%) ([1]; 100 ng/mL) | −80°C for 1month Accuracy (%) ([1]; 100 ng/mL) | Autosampler for 24 h Accuracy (%) ([1]; 500 ng/mL) | Room temperature for 24 h Accuracy (%) ([1]; 500 ng/mL) | Freeze thaw cycles Accuracy (%) ([1]; 500 ng/mL) | −80°C for 1month Accuracy (%) ([1]; 500 ng/mL) | Working solution Accuracy (%) ([3]; 12.5 ng/mL) | Working solution Accuracy (%) ([3]; 50 ng/mL) | Working solution Accuracy (%) ([3]; 100 ng/mL) | Working solution Accuracy (%) ([3]; 500 ng/mL) | Freeze thaw cycles Accuracy (%) ([1]; 50 ng/mL) | −80°C for 1month Accuracy (%) ([1]; 50 ng/mL) | other results
COC(=O)C1=CO[C@@H](O[C@@H]2O[C@H](CO)[C@@H](O)[C@H](O)[C@H]2O)[C@H]2[C@@H]1C(=O)C[C@@H]2C [verbenalin] | 84.9 | 104.0 | 93.8 | 89.1 | 92.5 | 88.9 | 89.7 | 91.2 | 87.8 | 95.7 | 88.3 | 104.0 | 88.5 | 104.0 | 83.3 | 89.5 | 86.2 | 96.4 | – | – | AUC(0-t) ([2]; rat, in vivo, po, 3.15 g/kg): 618.13 ± 161.10 ng·h/mL; AUC(0-∞) ([2]; rat, in vivo, po, 3.15 g/kg): 669.34 ± 164.70 ng·h/mL; Cmax ([2]; rat, in vivo, po, 3.15 g/kg): 135.83 ± 52.28 ng/mL; MRT (0-∞) ([2]; rat, in vivo, po, 3.15 g/kg): 7.95 ± 4.85 h; MRT(0-t) ([2]; rat, in vivo, po, 3.15 g/kg): 4.85 ± 0.77 h; T1/2 ([2]; rat, in vivo, po, 3.15 g/kg): 8.37 ± 2.80 h; Tmax ([2]; rat, in vivo, po, 3.15 g/kg): 1.37 ± 0.80 h
COc1ccc([C@@H]2CC(=O)c3c(O)cc(O[C@@H]4O[C@H](CO[C@@H]5O[C@@H](C)[C@H](O)[C@@H](O)[C@H]5O)[C@@H](O)[C@H](O)[C@H]4O)cc3O2)cc1O [hesperidin] | 82.1 | 84.1 | 94.3 | 81.8 | 100.0 | 93.7 | 96.0 | 92.3 | 95.7 | 93.1 | 87.8 | 92.3 | 89.1 | 93.6 | 81.7 | 109.0 | 102.0 | 91.0 | 85.4 | 85.8 | AUC(0-t) [2, 4]: 1058.05 ± 267.32 ng·h/mL; AUC(0-∞) [2, 4]: 1058.06 ± 267.32 ng·h/mL; Cmax [2, 4]: 604.36 ± 145.25 ng/mL; MRT (0-∞) [2, 4]: 4.52 ± 0.54 h; MRT(0-t) [2, 4]: 4.52 ± 0.54 h; T1/2 [2, 4]: 1.94 ± 0.03 h
O=C(O)c1ccc(O)c(O)c1 [protocatechuic acid] | 86.0 | 91.0 | – | 114.0 | – | – | 98.5 | 106.0 | 90.0 | 100.0 | 85.2 | 85.3 | 89.0 | 91.2 | 104.0 | – | 92.6 | 88.9 | – | – | Autosampler for 24 h Accuracy (%) ([1]; 1.56 ng/mL): 103.0%; Room temperature for 24 h Accuracy (%) ([1]; 1.56 ng/mL): 110.0%; Freeze thaw cycles Accuracy (%) ([1]; 1.56 ng/mL): 103.0%; −80°C for 1month Accuracy (%) ([1]; 1.56 ng/mL): 80.4%; Tmax ([2]; male, Sprague-Dawley, rat, plasma, po, 3.15 g/kg, rat plasma, oral QJYQ 3.15 g/kg, n = 8, mean ± SD, read-out: Tmax): < 0.5 h; half-life ([2]; male, Sprague-Dawley, rat plasma, oral QJYQ 3.15 g/kg, n = 8, mean ± SD): 2.33 ± 0.52 h; AUC(0-t) ([2]; male, Sprague-Dawley, rat plasma, oral QJYQ 3.15 g/kg, n = 8, mean ± SD, read-out: AUC(0-t)): 40.8 ± 10.9 ng·h/mL; AUC(0-inf) ([2]; male, Sprague-Dawley, rat plasma, oral QJYQ 3.15 g/kg, n = 8, mean ± SD, read-out: AUC(0-∞)): 40.9 ± 17.3 ng·h/mL; Cmax ([2]; male, Sprague-Dawley, rat plasma, oral QJYQ 3.15 g/kg, n = 8, mean ± SD, read-out: Cmax): 6.79 ± 4.35 ng/mL; MRT inf ([2]; male, Sprague-Dawley, rat plasma, oral QJYQ 3.15 g/kg, n = 8, mean ± SD, read-out: MRT (0-∞)): 5.32 ± 1.53 h; MRT last ([2]; male, Sprague-Dawley, rat plasma, oral QJYQ 3.15 g/kg, n = 8, mean ± SD, read-out: MRT(0-t)): 5.3 ± 1.02 h; Working solution Accuracy (%) ([3]; 1.56 ng/mL): 82.3%
COc1cc(/C=C/C(=O)O)ccc1O [ferulic acid] | 84.5 | 104.0 | 96.0 | 115.0 | 86.9 | 96.8 | 91.5 | 86.7 | 115.0 | 95.9 | 93.6 | – | – | 107.0 | 87.7 | 96.8 | 88.3 | 96.7 | 98.3 | 90.9 | MRT ([2]; rat plasma, oral QJYQ 3.15 g/kg, MRT type not specified): greater than 8 h; AUC(0-t) [2, 4]: 173.23 ± 5.66 ng·h/mL; AUC(0-∞) [2, 4]: 176.72 ± 28.57 ng·h/mL; Cmax [2, 4]: 51.71 ± 10.68 ng/mL; MRT (0-∞) [2, 4]: 8.43 ± 0.53 h; MRT(0-t) [2, 4]: 8.40 ± 0.20 h; T1/2 [2, 4]: 2.12 ± 0.07 h
